# Reference: paper PMC6150336, “Hepatotoxicity Induced by Sophora flavescens and Hepatic Accumulation of Kurarinone, a Major Hepatotoxic Constituent of Sophora flavescens in Rats” (Molecules : A Journal of Synthetic Chemistry and Natural …, 2017)
# Like-named read-outs stand apart in the source and are kept apart here.
# How the values were obtained:
# [1] = method and reference not given; cited from earlier work
# [2] = ESF tissue distribution study in rats; format: in vivo, rat; settings: for AUC(0-t): male, rat
# Procedure: Male rats were divided into five groups corresponding to five experimental time points (n = 3 in each group). Rats under urethane anesthesia were sacrificed by bleeding from the abdominal aorta and hepatic portal vein at 15 min, 30 min, 1 h, 2 h, and 4 h time points (3 rats/time point) after a p.o. dose of ESF (2.5 g/kg). The liver, kidneys, heart, skeletal muscles, small intestine, and bile were harvested and homogenized in threefold volume of ice-cold saline. Kurarinone levels in vivo in the plasma and liver were examined at the time points when blood biochemistry parameters were measured. Kurarinone and kurarinone glucuronides levels were detected by LC-MS/MS [24, 25].
# [3] = tested on: HL-7702 cells; test: Effect of kurarinone on triglyceride levels in HL-7702 cells; format: cell-based, human; settings: HL 7702 cells exposed for 24 h
# Procedure: HL-7702 cells were cultured in RPMI-1640 medium (Gibco, Grand Island, NY, USA) containing 10% fetal bovine serum (FBS) (Gibco, USA) in a humidified atmosphere of 5% CO2 at 37 °C. The cells were seeded in 24-well plates, cultured for 24 h, and incubated with kurarinone (1, 8, 16, 24, 32, 44, and 60 μM) dissolved in RPMI-1640 medium without FBS for 24 h. Triglyceride levels were determined using a triglyceride assay kit (Nanjing Jiancheng Bioengineering Institute) according to the manufacturer’s instructions.
# [4] = AUC0–4h after oral administration of ESF (2.5 g/kg) in rats
compound,measurement,setting,value
"C=C(C)[C@H](CC=C(C)C)Cc1c(O)cc(OC)c2c1O[C@H](c1ccc(O)cc1O)CC2=O [Kurarinone, kurarinone]",log p,[1],5.6
same,Exposure of liver compared with plasma,[2]; ESF (2.5 g/kg) orally in rats,much higher
same,Form of kurarinone in visceral organs,[2]; ESF-treated rats,predominant
same,AUC(0-t),"[2]; bile, AUC0–4h after oral administration of ESF (2.5 g/kg) in rats, read-out: AUC0–t Biliary Secretion",0.8 µM·h
same,AUC(0-t),"[2]; heart, AUC0–4h after oral administration of ESF (2.5 g/kg) in rats, read-out: AUC0–t Heart",4.7 µM·h
same,AUC(0-t),"[2]; hepatic portal vein plasma, AUC0–4h after oral administration of ESF (2.5 g/kg) in rats, read-out: AUC0–t Protal Plasma",4.4 µM·h
same,AUC(0-t),"[2]; kidney, AUC0–4h after oral administration of ESF (2.5 g/kg) in rats, read-out: AUC0–t Kidney",5.4 µM·h
same,AUC(0-t),"[2]; liver, AUC0–4h after oral administration of ESF (2.5 g/kg) in rats, read-out: AUC0–t Liver",45.5 µM·h
same,AUC(0-t),"[2]; skeletal muscle, AUC0–4h after oral administration of ESF (2.5 g/kg) in rats, read-out: AUC0–t Skeletal Muscle",6.9 µM·h
same,AUC(0-t),"[2]; small intestine, AUC0–4h after oral administration of ESF (2.5 g/kg) in rats, read-out: AUC0–t Intestine",21.4 µM·h
same,AUC(0-t),"[2]; systemic (body) plasma, AUC0–4h after oral administration of ESF (2.5 g/kg) in rats, read-out: AUC0–t Body Plasma",2.4 µM·h
same,Triglyceride accumulation,[3]; 1-60 μM,accumulated dose-dependently
same,EC50,"[3]; Homo sapiens, L02, read-out: EC50, increase of triglyceride",31.2 ± 2.47 µM
kurarinone glucuronide,AUC0–t Biliary Secretion,[2]; [4],93.3 µM·h
same,AUC0–t Body Plasma,[2]; [4],15.3 µM·h
same,AUC0–t Heart,[2]; [4],0.1 µM·h
same,AUC0–t Intestine,[2]; [4],2.2 µM·h
same,AUC0–t Kidney,[2]; [4],0.7 µM·h
same,AUC0–t Liver,[2]; [4],1.4 µM·h
same,AUC0–t Protal Plasma,[2]; [4],25.0 µM·h
same,AUC0–t Skeletal Muscle,[2]; [4],0.4 µM·h
same,Form of kurarinone in plasma and bile,[2]; ESF-treated rats,dominant form
